Earlier results on one compound are cited in patent US20160000720A1, “Pharmaceutical compositions comprising Tadalafil” (AUROBINDO PHARMA LIMITED, priority 2013, published 2016).

`CN1CC(=O)N2[C@H](c3ccc4c(c3)OCO4)c3[nH]c4ccccc4c3C[C@@H]2C1=O` [Tadalafil, (6R,12aR)-6-(1,3-benzodioxol-5-yl)-2,3,6,7,12,12a hexa hydro-2-methylpyrazino[1′,2′:1,6]pyrido[3,4-b]indole-1,4-dione]: the “solubility in water (in words)” value was “practically insoluble in water”. Further, the “soluble in water in a concentration up to” value (according to WO 01/08687) is reported as “up to 2 μg/ml”.
